# Source: patent US7884136B2, “Modified-release formulations of a bupropion salt” (Biovail Laboratories International S.R.L., priority 2005, dated 2011)
# Read-outs that look alike come from different tables or passages of the source. Marks after values point to notes of the source that are not given here.
# Experiments:
# [1] = Moisture content of bupropion salts by KF; assay type: physicochemical; conditions: for KF (moisture content), Original (Initial APIs): original API salts
# Experimental: (§1) The eight salts were first evaluated by HPLC, KF, pH and DSC for purity, water content, aqueous pH and possible polymorphs.
# (§2) The salts were analysed by DSC (at 10° C./min from 30° C. up to 400° C.) and the pH (aq. 0.5%), and the moisture content by KF were also measured. The TGA was performed on the HCl, maleate, tosylate and HBr salts.
# [2] = pH of 0.5% aqueous solution of bupropion salts; assay type: physicochemical; conditions: for pH (aq. 0.5%), Original (Initial APIs): original API salts
# Experimental: as §1, §2
# [3] = Solubility of Bupropion HBr vs Bupropion HCl in water, EtOH, IPA; assay type: physicochemical
# [4] = Thermal analysis by TGA of bupropion salts; assay type: physicochemical; conditions: for TGA: weight lost between room temperature and 100° C.: room temperature to 100° C.
# Experimental: 2-5 mg of each salt was placed in an aluminium pan and covered with its lid. DSC was run for each sample at the rate of 10° C./min (for HBr salt, different rates were used to investigate for polymorphs) from 30° C. to 400° C. TGA was also used for each of the HBr, HCl, maleate and tosylate salts.
# as §2
# [5] = Forced degradation stability study of bupropion salts spiked with placebo/excipients, closed vials, 40° C./75% RH, HPLC assay and impurities
# Experimental: The stability of the salts was evaluated based on the formation of the main degradation products (see below) as determined by HPLC analysis and the % potency (or assay) of the API, after specific time periods in the stability chamber. The effect of the addition of solvents, such as water, ethanol and isopropyl alcohol, was also studied.
# The samples of each salt and the spiked salts with the bupropion HCl XL were prepared under the conditions mentioned in Table 4. […] The stability of the bupropion salts were evaluated based on the formation of the main degradation product 3-chlorobenzoic acid (3-CBZ) and the intermediate degradation products diketone 827U76 and the ketohydroxyl derivatives (20U78 and 852U77) (Scheme 2).
# As mentioned above, the stability samples were prepared in 2 mL vials and used directly for assay and impurity analysis by HPLC without further sample preparations to minimize errors.
# [6] = Comparative forced degradation of bupropion HCl and HBr API salts, closed glass bottle, 40° C./75% RH, HPLC; assay type: physicochemical; conditions: closed glass bottle
# Experimental: Further stability tests were performed by directly comparing bupropion HBr and bupropion HCl salts in forced degradation studies. […] At specified times, the material in the bottles was analyzed for the presence of degradation products and % potency (% assay).
# The samples were exposed to the above conditions in a closed bottle for few days, and then subjected to HPLC analysis. The amount of the main degradation products present after treatment were compared with those amounts that were present initially.
# The samples were analysed after 14 and 24 days (study-1) and 10 days (study II), in a quantitative manner by direct treatment of the whole content of the bottle as per the HPLC standard test method (P05.901.10).
# [7] = Release of bupropion base from bupropion HCl and HBr; assay type: physicochemical; conditions: 150 mg of the salt tested
# Experimental: It was previously observed that when 150 mg of bupropion HCl was tested for its release of bupropion, the base value that was released was 130 mg.
# [8] = TGA experiment at 100° C., loss of API salt over time; assay type: physicochemical; conditions: TGA at 100° C.
# Experimental: The average weight of the excipients and the weight of the active pharmaceutical ingredient (API) present in the samples are presented in Table 72. […] FIG. 53 is a graph showing the loss of each salt over time in a TGA experiment at 100° C.
# [9] = Stability of bupropion HBr polymorphic forms I, II and III by PXRD under ICH conditions; assay type: physicochemical; conditions: for Stability of the polymorphic form (words): ICH conditions 40° C., 75% R.H.; for Stability of the polymorphic form (words) / PXRD profile / crystalline form after storage (words): hydrobromide; for PXRD profile / crystalline form after storage (words): ICH conditions 40° C./75% r.h., 1 month
# Experimental: It is well known that organic molecules can crystallize into solid forms. Moreover the same organic compound may assume different crystalline arrangements in solid form, depending on the conditions under which the crystal product is formed. This phenomenon is commonly known as polymorphism. […] The crystal forms of the products obtained in this study were determined by powder X-ray diffraction (PXRD). A RIGAKU miniflex instrument (Radiation Cu K∝, generator 30 KV, filter Ni) was used to obtain the PXRD data.
# The three polymorphic forms were subjected to stability testing. […] Samples of the polymorphic forms II and III were tested after 1 month under the same accelerated stability conditions.
# Samples of bupropion HBr form I were subjected to the conditions for the accelerated stability study as described in Example 10 and the shelf life stability study as described in Example 11.
# 10 g of bupropion HBr form I were dissolved in a mixture of 170 ml of acetone and 7 ml of water. The mixture was brought to reflux with dissolution of the solid. The solution was then cooled to room temperature. After one night the precipitate formed was filtered and dried at 40° C. under vacuum (30 mmHg) for 12 hours. […] The crystalline form was checked after maintaining the product under these conditions for 1 month.
# The mixture was brought to reflux obtaining complete dissolution of the solid. The solution was then cooled to room temperature without stirring and left in these conditions for 18 hours. The resulting crystalline solid was then filtered and dried under vacuum (30 mmHg) at 50° C. for 4 hours. […] The crystalline form was checked after maintaining the product in these conditions for 1 month.
# [10] = In IPA/EtOH, 32 days, closed vials
# [11] = In water, 32 days, closed vials
# [12] = repeat study, 40 C/75% RH, 10 Days, Lot# STN06973, hydrochloride
# [13] = repeat study, 40 C/75% RH, 10 Days, Lot# STN06978, hydrochloride
# [14] = repeat study, 40 C/75% RH, Initial, Lot# STN06973, hydrochloride
# [15] = repeat study, 40 C/75% RH, Initial, Lot# STN06978, hydrochloride
compound,measurement,setting,value
"CC(NC(C)(C)C)C(=O)c1cccc(Cl)c1.Cl (racemic) [Bupropion HCl, (±)-1-(3-chlorophenyl)-2-[(1,1-dimethylethyl)amino]-1-propanone hydrochloride, reference compound]",Moisture Content (KF),"[1]; Table 3, supplier API",0.01%
same,"KF (moisture content), Original (Initial APIs)",[1],0.0%
same,"pH (aq. 0.5%), Original (Initial APIs)",[2]; 0.5% aqueous solution,5.90
same,pH (aq. 0.5%),"[2]; Table 3, supplier API",5.90
same,solubility,"[3]; ethanol, organic solvent or mixture, EtOH, read-out: Solubility, EtOH",80 mg/mL
same,solubility,"[3]; isopropanol, organic solvent or mixture, IPA, read-out: Solubility, IPA",10 mg/mL
same,solubility,"[3]; water, read-out: Solubility, Water",270 mg/mL
same,TGA: residue at 400° C.,[4],minimal residues
same,Order of stability (assay) with IPA & EtOH,"[5]; DS and excipients spiked with IPA & EtOH, 32 days, closed vials, 40° C.",HCl>HBr>tosylate>maleate>fumarate
same,Order of stability (assay) with water,"[5]; DS and excipients spiked with water, 32 days, closed vials, 40° C.",tosylate>maleate>HCl>HBr>fumarate
same,"Content of impurity 3-CBZ, order of salts",[5]; [10],maleate > HBr > HCl > Fumarate
same,"Content of impurity 852U77, order of salts",[5]; [10],fumarate > HBr ≈ HCl ≈ maleate ≈ tosylate
same,"Total imp., order of salts",[5]; [10],fumarate > maleate > HBr > HCl > tosylate
same,"Content of impurity 3-CBZ, order of salts",[5]; [11],HCl > HBr ≈ maleate ≈ fumarate
same,"Content of impurity 852U77, order of salts",[5]; [11],fumarate > HBr > maleate > HCl
same,"Total imp., order of salts",[5]; [11],fumarate > HBr > HCl > tosylate > maleate
same,"Order of stability (assay, % potency)","[5]; salt plus excipients, 20 days, closed vial, 40° C./75% RH",HBr>HCl=tosylate>fumarate>maleate
same,% Assay,"[6]; 40° C./75% RH, 14-Days",98.5%
same,% Impurities 3-CBZ,"[6]; 40° C./75% RH, 14-Days",0.019%
same,% Impurities 20U78/dilu,"[6]; 40° C./75% RH, 14-Days",0.038%
same,% Impurities 852U77,"[6]; 40° C./75% RH, 14-Days",0.010%
same,% Impurities Total unknown,"[6]; 40° C./75% RH, 14-Days",0.038%
same,Total (%) impurities,"[6]; 40° C./75% RH, 14-Days",0.11%
same,% Assay,"[6]; 40° C./75% RH, 24 Days",98.5%
same,% Impurities 3-CBZ,"[6]; 40° C./75% RH, 24 Days",0.082%
same,% Impurities 20U78/dilu,"[6]; 40° C./75% RH, 24 Days",0.040%
same,% Impurities 827U76,"[6]; 40° C./75% RH, 24 Days",0.102%
same,% Impurities 852U77,"[6]; 40° C./75% RH, 24 Days",0.023%
same,% Impurities Total unknown,"[6]; 40° C./75% RH, 24 Days",0.049%
same,Total (%) impurities,"[6]; 40° C./75% RH, 24 Days",0.30%
same,% Assay,"[6]; 40° C./75% RH, Initial",100.4%
same,% Impurities 3-CBZ,"[6]; 40° C./75% RH, Initial",0.002%
same,% Impurities 20U78/dilu,"[6]; 40° C./75% RH, Initial",0.043%
same,% Impurities 852U77,"[6]; 40° C./75% RH, Initial",0.003%
same,% Impurities Total unknown,"[6]; 40° C./75% RH, Initial",0.044%
same,Total (%) impurities,"[6]; 40° C./75% RH, Initial",0.09%
same,% Assay,[6]; [12],96.3%
same,% Impurities 3-CBZ,[6]; [12],0.110%
same,% Impurities 20U78/dilu,[6]; [12],0.047%
same,% Impurities 827U76,[6]; [12],0.045%
same,% Impurities 852U77,[6]; [12],0.047%
same,% Impurities Total unknown,[6]; [12],0.187%
same,Total (%) impurities,[6]; [12],0.44%
same,% Assay,[6]; [13],96.5%
same,% Impurities 3-CBZ,[6]; [13],0.278%
same,% Impurities 20U78/dilu,[6]; [13],0.057%
same,% Impurities 827U76,[6]; [13],0.141%
same,% Impurities 852U77,[6]; [13],0.124%
same,% Impurities Total unknown,[6]; [13],0.137%
same,Total (%) impurities,[6]; [13],0.74%
same,% Assay,[6]; [14],99.4%
same,% Impurities 3-CBZ,[6]; [14],0.003%
same,% Impurities 20U78/dilu,[6]; [14],0.040%
same,% Impurities Total unknown,[6]; [14],0.053%
same,Total (%) impurities,[6]; [14],0.10%
same,% Assay,[6]; [15],99.1%
same,% Impurities 3-CBZ,[6]; [15],0.002%
same,% Impurities 20U78/dilu,[6]; [15],0.04%
same,% Impurities Total unknown,[6]; [15],0.165%
same,Total (%) impurities,[6]; [15],0.21%
same,Base value of bupropion released,[7],130 mg
same,Disproportionation of the salt at elevated temperature,[8],disproportionation of the HCl salt occurs with concomitant loss of gaseous HCl
"Br.CC(NC(C)(C)C)C(=O)c1cccc(Cl)c1 (stereo not drawn) [Form III, bupropion hydrobromide]",Stability of the polymorphic form (words),[9]; listed as form III,not as stable as forms I and II
same,PXRD profile / crystalline form after storage (words),[9]; listed as bupropion HBr form III,the majority of the product changed to form II
same,PXRD profile / crystalline form after storage (words),[9]; listed as form III,conversion to form II
Bupropion maleate,"KF (moisture content), Original (Initial APIs)",[1],0.10%
same,"pH (aq. 0.5%), Original (Initial APIs)",[2]; 0.5% aqueous solution,4.29
same,TGA: residue at 400° C.,[4],minimal residues
same,TGA: thermally stable to at least,[4]; TGA,at least 150 °C
same,TGA: weight lost between room temperature and 100° C.,[4],1.3%
same,"Content of impurity 3-CBZ, order of salts",[5]; [10],maleate > HBr > HCl > Fumarate
same,"Content of impurity 852U77, order of salts",[5]; [10],fumarate > HBr ≈ HCl ≈ maleate ≈ tosylate
same,"Total imp., order of salts",[5]; [10],fumarate > maleate > HBr > HCl > tosylate
same,"Content of impurity 3-CBZ, order of salts",[5]; [11],HCl > HBr ≈ maleate ≈ fumarate
same,"Content of impurity 852U77, order of salts",[5]; [11],fumarate > HBr > maleate > HCl
same,"Total imp., order of salts",[5]; [11],fumarate > HBr > HCl > tosylate > maleate
Bupropion tosylate,"KF (moisture content), Original (Initial APIs)",[1],1.71%
same,"KF (moisture content), Original (Initial APIs)",[1]; listed as Bup-Tosylate,1.71* %
same,"KF, After recrystallization (R&D), Tested after 2 Months","[1]; re-crystallized salt, 2 months",0.18%
same,"KF, After recrystallization (R&D), Tested after 1 day",[1]; re-crystallized salt,0.23%
same,"KF, After recrystallization (R&D), Tested after 1 day","[1]; re-crystallized salt, listed as Bup-Tosylate",023%
same,"pH (aq. 0.5%), Original (Initial APIs)",[2]; 0.5% aqueous solution,5.56
same,"pH (aq. 0.5%), After recrystallization (R&D), Tested after 1 day","[2]; re-crystallized salt, 0.5% aqueous solution",5.88
same,TGA: residue at 400° C.,[4],10.3%
same,TGA: weight lost between room temperature and 100° C.,[4],1.3%
same,"Content of impurity 852U77, order of salts",[5]; [10],fumarate > HBr ≈ HCl ≈ maleate ≈ tosylate
same,"Total imp., order of salts",[5]; [10],fumarate > maleate > HBr > HCl > tosylate
same,"Total imp., order of salts",[5]; [11],fumarate > HBr > HCl > tosylate > maleate
"Br.CC(NC(C)(C)C)C(=O)c1cccc(Cl)c1 (stereo not drawn) [Form I, bupropion hydrobromide]",Stability of the polymorphic form (words),[9]; listed as form I,quite stable
same,PXRD profile after storage,"[9]; accelerated (40° C./75% RH) and shelf life conditions, 3 months and 6 months",gave the same results
